The text below walks through data of patent EP0392326B1, “Dichloro-substituted imidazole derivatives as antifungal agents” (SOCIEDAD ESPANOLA DE ESPECIALIDADES FARMACO-TERAPEUTICAS, …, priority 1989, dated 1990).

One data set relates to C. parapsilosis. In words: In vitro MIC, progressive double dilutions in liquid medium. Format: cell-based. More on the design: unit not given here. The settings on record: Sabouraud broth with gentamycin. The protocol:
(§1) In vitro ativity against 116 strains of yeasts and 45 strains of dermatophytes
(§2) MIC-s were determined by the method of progressive double dilutions in a liquid medium, using sterile microplates. The culture medium used was the Sabouraud broth with gentamycin (100 mg/1000 mL).

The test system of another data set is M. gypseum. Described as above. It is filed as cell-based. More on the design: unit not given here. The settings on record: Sabouraud broth with gentamycin. The protocol:
as §1, §2

Another data set relates to C. albicans. The data set is described as above. It is filed as cell-based. More on the design: unit not given here. The settings on record: Sabouraud broth with gentamycin. The procedure: as §1, §2
Another data set concerns C. tropicalis. The description is as above. Format: cell-based. More on the design: unit not given here. The settings on record: Sabouraud broth with gentamycin. The protocol: as §1, §2
For the next data set, the system named is Torulopsis glabrata. The data set is described as above. It is filed as cell-based. The settings on record: Sabouraud broth with gentamycin. The protocol:
as §1, §2

The next data set has as its system C. Krusei. The data set is described as above. The settings on record: Sabouraud broth with gentamycin. Format: cell-based. The protocol: as §1, §2
The next data set concerns T. tonsurans. Described as above. It is filed as cell-based. The settings on record: Sabouraud broth with gentamycin. The protocol:
as §1, §2

Another data set relates to Trichoph. mentagrophytes. The data set is described as above. It is filed as cell-based. The settings on record: Sabouraud broth with gentamycin. The procedure: as §1, §2
In another data set the test system is Epidermophyton floccosum. Described as above. The settings on record: Sabouraud broth with gentamycin. It is filed as cell-based. The protocol:
as §1, §2

In a further data set the test system is Trich. rubrum. Described as above. Format: cell-based. The settings on record: Sabouraud broth with gentamycin. The procedure:
as §1, §2

The next data set relates to Microsporum canis. The description is as above. The settings on record: Sabouraud broth with gentamycin. Format: cell-based. The protocol: as §1, §2
Data set [1] in a line: Tolerance test in rabbits (eye, skin, vagina). The settings on record: skin and vagina. It is filed as in vivo. An excerpt:
Tolerance test of WAS 2160 in rabbits

In data set [2] the test system is Candida tropicalis CECT 1440. Briefly: In vitro activity against Candida tropicalis CECT 1440 (MIC and RIF). It is filed as cell-based. The settings on record: for RIF: Relative Inhibition Factor, Candida tropicalis CECT 1440; for activity compared with Clotrimazole: applicant's own tests, illustrated by the table of Example 3. An excerpt:
In vitro activity against Candida tropicalis CECT 1440.
This pharmacological test allows a comparison of the activities of the two products of the present invention (WAS 2160 and WAS 2169) with the activities of the structurally closest described product (SQ 80896), the structurally closest commercial product (Clotrimazole) and the analogue product without the seven-membered ring (WAS 2162). MIC (Minimum Inhibitory Concentration, in […]) and RIF (Relative Inhibition Factor) parameters were determined in a standard way, obtaining the results of the table (WAS 2162 is the nitric acid salt of 1-[(2,4-dichlorophenyl)phenylmethyl]-1H-imidazole, prepared at our laboratory).

The subject of data set [3] is Malassezia furfur (Pytiosporum). Briefly: In vitro test against 30 strains of Malassezia furfur. The settings on record: for % of strains with PIC lower than 40 »g/mL: PIC = Partial Inhibitory Concentration: growth inhibition greater than 50% in relation to controls. Format: cell-based. The protocol: In vitro test against 30 strains of Malassezia furfur (Pytiosporum)
A double-blind comparative test was carried out with WAS 2160, Clotrimazole and Bifonazole, with the results of the table. (PIC = Partial Inhibitory Concentration: growth inhibition greater than 50% in relation to controls).

Another data set has as its system candidiosis. In words: In vivo antifungal activity against candidiosis. The settings on record: guinea pig candidiosis, double-blind. The procedure:
In vivo test of antifungal activity against candidiosis in guinea pig
A double-blind comparative test was carried out with WAS 2160 and Clotrimazole, with the following results: […]

Data set [4] has as its system Trichophyton mentagrophytes. Briefly: In vivo protection against experimentally-induced dermatophytosis. The settings on record: guinea pig, double-blind. The procedure: In vivo tests of protection against experimentally-induced dermatophytosis in the guinea pig, caused by Trichophyton mentagrophytes.
Two double-blind comparative tests were carried out, with the following results: […]

The subject of the next data set is Candida albicans. The settings on record: data of US 4.420.474 Table I; cited from earlier work.

On to `Clc1cc(Cl)c2c(c1)CCc1ccccc1C2n1ccnc1.O=[N+]([O-])O` (racemic) [WAS 2160, 1-(2,4-Dichloro-10,11-dihydro-5H-dibenzo[a,d]cyclohepten-5-yl)-1H-imidazole nitrate], for which the MIC in the data set on C. parapsilosis is given as 2,06; in the data set on M. gypseum, 1,05; in the data set on C. albicans, 2,25; in the data set on C. tropicalis, 3,44; with Torulopsis glabrata, 1,25; against C. Krusei it was 3,17. Further, the MIC in the data set on T. tonsurans is 0,19; in the data set with Trichoph. mentagrophytes, 0,17; against Epidermophyton floccosum it was 0,32; against Trich. rubrum it was 0,54; in the data set on Microsporum canis, 0,39. In addition, in data set [1], the Tolerance entry is “innocuous and totally tolerated by the eye, the skin and the vagina”. In data set [2], this compound came in with an RIF of 39.31. The “% of strains with MIC lower than 40 »g/mL” value in data set [3] is 40%. Further, the “% of strains with PIC lower than 40 »g/mL” value in data set [3] is on record as 60%. Also, in the data set with candidiosis, the “% of animals with total clin. healing” value came out at 60%. In addition, the “% of negative cultures after treatment” value is listed as 100% with candidiosis and 50% in data set [4] (test I).

Take `Clc1ccc(C(c2ccccc2)n2ccnc2)c(Cl)c1` (centres unmarked) [WAS 2162, 1-[(2,4-dichlorophenyl)phenylmethyl]-1H-imidazole]: in [2], the RIF was 94.47 and the “activity compared with Clotrimazole” value is reported as “considerably less active than Clotrimazole”.

For the compound `Clc1ccc2c(c1)C(n1ccnc1)c1ccccc1CC2` (centres unmarked) [SQ 80896, 1-(3-chloro-10,11-dihydro-5H-dibenzo[a,d]dicyclohepten-5-yl)-1H-imidazole], in data set [2], the RIF is 83.96 and the “activity compared with Clotrimazole” value is “considerably less active than Clotrimazole”. Also, in the data set with Candida albicans, the “activity compared with Clotrimazole (MIC parameters)” value was “considerably less active than Clotrimazole”.

For the compound `Clc1ccccc1C(c1ccccc1)(c1ccccc1)n1ccnc1` [Clotrimazole], the MIC with C. parapsilosis is on record as 2,36; in the data set with M. gypseum it was 0,97; in the data set on C. albicans it was 2,43; in the data set on C. tropicalis, 3,51; in the data set on Torulopsis glabrata, 6,29; against C. Krusei, 6,18. The MIC in the data set with T. tonsurans is given as 0,90; with Trichoph. mentagrophytes it was 0,23; against Epidermophyton floccosum, 0,09; against Trich. rubrum it was 0,31; against Microsporum canis it was 2,69. Further, the RIF in data set [2] came to 43.05. Also, the “% of strains with MIC lower than 40 »g/mL” value in data set [3] came out at 33%. The “% of strains with PIC lower than 40 »g/mL” value in data set [3] was found to be 56%. Further, the “% of animals with total clin. healing” value in the data set on candidiosis worked out at 30%. The “% of negative cultures after treatment” value with candidiosis was found to be 100%.

Consider `Clc1cc(Cl)c2c(c1)C=Cc1ccccc1C2n1ccnc1.O=[N+]([O-])O` (racemic) [WAS 2169, 1-(2,4-dichloro-5H-dibenzo[a,d]cyclohepten-5-yl)-1H-imidazole nitrate], for which the MIC against C. parapsilosis is listed as 1,08; in the data set with M. gypseum, 0,08; against C. albicans, 1,98; against C. tropicalis it was 7,58; against Torulopsis glabrata it was 6,33; with C. Krusei, 5,61. For the same compound, the MIC is on record as 0,17 with Trichoph. mentagrophytes, 0,30 against Trich. rubrum and 0,06 against Microsporum canis. In [2], the RIF amounted to 54.94. Moreover, the “% of negative cultures after treatment” value in [4] (test II) is listed as 81,8%.

With `c1ccc(-c2ccc(C(c3ccccc3)n3ccnc3)cc2)cc1` (centres unmarked) [Bifonazole], the MIC is listed as 58,97 against C. parapsilosis; 6,25 with M. gypseum; 12,10 against C. albicans; 72,67 against C. tropicalis; 14,88 with Torulopsis glabrata; 50,50 with C. Krusei. Besides, the MIC in the data set with T. tonsurans was 1,20; against Trichoph. mentagrophytes, 1,48; against Epidermophyton floccosum it was 0,02; against Trich. rubrum, 1,19; against Microsporum canis, 3,12. In addition, the “% of strains with MIC lower than 40 »g/mL” value in data set [3] amounted to 83%. Besides, in data set [3], the “% of strains with PIC lower than 40 »g/mL” value came out at 50%. The “% of negative cultures after treatment” value in [4] (test I) is 39 % (test I); in [4] (test II), 0 % (test II).
